The test system of data set [1] is Liver microsomes. Put plainly: Metabolic stability in rat liver microsome assessed as covalent binding per mg of protein. Format: ADME.
In data set [2] the test system is Liver microsomes. Put plainly: Metabolic stability in human liver microsome assessed as covalent binding per mg of protein. Type of data set: ADME.
The nature of data set [3]: Half life in rat at 1 mg/kg, iv or 2 mg/kg, po. Type of data set: ADME, organism-based. The note with it: in vivo.
Data set [4] is described as follows: Oral bioavailability in rat at 2 mg/kg. Type of data set: ADME, organism-based. Particulars: in vivo.
Data set [5] is described as follows: Plasma clearance in rat at 1 mg/kg, iv or 2 mg/kg, po. Type of data set: ADME, organism-based.
Data set [6] is described as follows: Metabolic stability in rat hepatocytes after 60 mins. Particulars: read-out: Stability. Type of data set: ADME, cell-based, Hepatocyte.
Data set [7] in a line: Mean residence time in rat at 1 mg/kg, iv or 2 mg/kg, po. Type of data set: ADME, organism-based. The note with it: in vivo.
Data set [8] has as its target Voltage-gated inwardly rectifying potassium channel KCNH2 (Homo sapiens, UniProt Q12809).
A short description of data set [9]: Metabolic stability in rat liver microsomes after 60 mins in presence of NADPH. Type of data set: ADME, Microsome. Particulars: read-out: Stability. (Microsomes from liver hold many membrane-bound enzymes, among them those of drug oxidation.)

As usually defined, the half-life is how long it takes for the measured level to halve. Read a low half-life as fast loss. For orientation: bioavailability means the share of a dose that reaches the circulation, judged against a reference dose that is usually intravenous. Higher therefore signals much systemic uptake. The MRT is the average time that molecules of a dose stay in the body. Broadly, the IC50 is the concentration that gives 50% inhibition. Read a low IC50 as greater potency.

Voltage-gated inwardly rectifying potassium channel KCNH2, sequence (Q12809 whole entry): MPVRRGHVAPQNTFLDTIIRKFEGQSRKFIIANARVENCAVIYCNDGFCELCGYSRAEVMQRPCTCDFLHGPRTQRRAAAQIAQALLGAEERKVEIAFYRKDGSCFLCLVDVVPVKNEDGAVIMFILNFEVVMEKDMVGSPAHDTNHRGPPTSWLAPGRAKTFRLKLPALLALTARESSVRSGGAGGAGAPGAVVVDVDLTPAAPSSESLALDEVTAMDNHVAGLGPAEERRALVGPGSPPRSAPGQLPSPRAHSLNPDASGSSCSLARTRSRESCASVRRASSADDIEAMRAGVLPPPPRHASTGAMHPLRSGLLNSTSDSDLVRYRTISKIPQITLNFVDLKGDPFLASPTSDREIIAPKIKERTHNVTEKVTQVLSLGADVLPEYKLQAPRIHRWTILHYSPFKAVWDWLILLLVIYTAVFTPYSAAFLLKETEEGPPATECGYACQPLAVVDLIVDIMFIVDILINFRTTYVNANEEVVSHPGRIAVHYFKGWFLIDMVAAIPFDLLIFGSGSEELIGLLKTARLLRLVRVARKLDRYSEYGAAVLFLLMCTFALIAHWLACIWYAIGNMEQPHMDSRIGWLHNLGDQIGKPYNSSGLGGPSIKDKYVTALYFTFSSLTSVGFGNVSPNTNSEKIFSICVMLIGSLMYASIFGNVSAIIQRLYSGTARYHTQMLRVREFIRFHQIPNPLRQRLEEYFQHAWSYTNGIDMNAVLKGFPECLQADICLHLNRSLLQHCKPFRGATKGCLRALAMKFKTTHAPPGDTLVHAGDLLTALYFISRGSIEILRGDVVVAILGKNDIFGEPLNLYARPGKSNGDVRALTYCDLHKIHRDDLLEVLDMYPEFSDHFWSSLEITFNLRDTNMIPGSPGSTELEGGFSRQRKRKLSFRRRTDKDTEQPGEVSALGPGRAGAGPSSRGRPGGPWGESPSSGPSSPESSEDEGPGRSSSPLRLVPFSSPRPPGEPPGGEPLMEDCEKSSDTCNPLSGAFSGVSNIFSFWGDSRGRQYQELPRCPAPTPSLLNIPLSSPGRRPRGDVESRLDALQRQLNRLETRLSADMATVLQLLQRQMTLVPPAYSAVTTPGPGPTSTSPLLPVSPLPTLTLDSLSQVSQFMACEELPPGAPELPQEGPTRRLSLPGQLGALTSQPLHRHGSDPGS

As for `C[C@H](c1nc(-c2ccc(S(=O)(=O)C[14CH3])cc2Cl)no1)[C@H](N)C(F)=C1CCCC1.O=C(O)C(F)(F)F`, the Stability is reported as 662 pmol/mg in the data set on Liver microsomes [1] and 287 pmol/mg with Liver microsomes [2].

In data set [3], `CS(=O)(=O)c1ccc(-c2noc([C@@H](CC3CC3)[C@H](N)C(F)=C3CCCC3)n2)c(Cl)c1.O=C(O)C(F)(F)F` showed a half-life of 1.5 h. In data set [4], this molecule displayed a bioavailability of 1%. The clearance in data set [5] turned out to be 54 mL/min/kg.

Molecule `CC(c1nc(-c2ccc(S(C)(=O)=O)cc2Cl)no1)[C@H](N)C(F)=C1CCCC1.O=C(O)C(F)(F)F` (stereo partly drawn) returned a bioavailability in data set [4] of 62%. In addition, the remaining at 1 h in [6] stood at 3%. Also, the clearance in data set [5] was 20 mL/min/kg. The molecule also yielded an MRT in data set [7] of 2 h.

In turn, `CS(=O)(=O)c1ccc(-c2noc([C@@H](CCO)[C@H](N)C(F)=C3CCCC3)n2)c(Cl)c1.O=C(O)C(F)(F)F` had a half-life in data set [3] of 1.6 h. The molecule also displayed a bioavailability in [4] of 4%. Moreover, in data set [8], 47 µM corresponded to half-maximal inhibition (IC50). Further, the clearance in data set [5] was determined as 51 mL/min/kg.

`C[C@H](c1nc(-c2ccc(S(C)(=O)=O)cc2Cl)no1)[C@H](N)C(=O)N1CCCC1.O=C(O)C(F)(F)F` showed a half-life in data set [3] of 0.86 h. The remaining at 1 h was 56% in data set [9] and 88% in [6]. This molecule displayed a bioavailability in data set [4] of 27%. In [5], this molecule yielded a clearance of 6 mL/min/kg.

(Values after ChEMBL document CHEMBL1143883, “Fluoroolefins as amide bond mimics in dipeptidyl peptidase IV inhibitors” (Bioorg Med Chem Lett, 2008).)
